Here are results for 10 molecules from US8809361B2, “2,3-dihydrofuro[2,3-c]pyridines, their use as modulators of the G-protein-coupled receptor GPR119 and pharmaceutical compositions thereof” (Boehringer Ingelheim International GmbH, priority 2012, dated 2014).

Structures are written as SMILES.

By EC50 is commonly meant the concentration giving half of the maximal effect. Lower therefore signals greater potency.

For this experiment, the target named is T1, human GPR119 (Homo sapiens, UniProt Q8TDV5).
T1 construct: expression vector for human GPR119 cDNA (Acc. No. NP_848566); expressed in transfected cells
T1 sequence (Q8TDV5 1-335): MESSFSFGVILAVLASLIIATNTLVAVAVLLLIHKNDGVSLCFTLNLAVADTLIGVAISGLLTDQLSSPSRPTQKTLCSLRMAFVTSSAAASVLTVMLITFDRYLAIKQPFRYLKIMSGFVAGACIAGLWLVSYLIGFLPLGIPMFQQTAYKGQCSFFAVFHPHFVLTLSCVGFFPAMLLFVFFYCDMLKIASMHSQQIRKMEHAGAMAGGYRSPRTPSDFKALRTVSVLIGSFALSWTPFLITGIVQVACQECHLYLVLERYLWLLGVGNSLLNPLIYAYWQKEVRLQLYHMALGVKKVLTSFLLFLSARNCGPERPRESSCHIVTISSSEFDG
As to the kind of experiment: GPR119 activation / intracellular cAMP stimulation, AlphaScreen cAMP Assay in Min-6/hGPR119 cells. It counts as cell-based. Conditions: MIN6 cells stably transfected with human GPR119, 45 minutes incubation at room temperature. On the procedure:
The compounds of formula I according to the invention modulate the activity of the G-protein-coupled receptor GPR119. The effect of the compounds on the activation of GPR119 and on the stimulation of intracellular cAMP concentration is determined using the AlphaScreen cAMP Assay Kit (Cat. No. #6760625R) made by PerkinElmer.
MIN6 cells [Miyazaki J et al., Endocrinology. 1990 July; 127(1):126-32] are stably transfected with an expression vector for human GPR119 cDNA (Acc. No. NP_848566). Min-6/hGPR119 cells are cultured in DMEM, 10% FBS, 50 μM β-mercaptoethanol, 0.3 mg/mL Geniticin, 2 mM GlutaMAX at 37° C., 5% CO2. For the assay, the cells are seeded in Optiplates (white, 384-well, 160W-barcoded, TC, sterile with lid, Cat. No. #6007688 (Perkin Elmer); 10000 cells/well; 50 μL). The plates covered with lids are then incubated for 24 hours at 37° C., 5% CO2. After the medium is aspirated from the wells completely, 10 ill of the test compound are added, the compounds are diluted using stimulating buffer (140 mM NaCl, 3.6 mM KCl, 0.5 mM NaH2PO4, 0.5 mM MgSO4, 1.5 mM CaCl2, 10 mM Hepes, 5 mM NaHCO3; pH 7.4. 0.5 mM IBMX and 0.1% BSA, the final DMSO concentration is 1%). After 45 minutes incubation at room temperature (approx. 20° C.), the cAMP concentrations are determined using the AlphaScreen cAMP Assay Kit (Cat. No. #6760625R from PerkinElmer).
As for `CC(C)c1noc(N2CCC3(CC2)CC2(Cc4cc(C5=CCN(S(C)(=O)=O)CC5)ncc4O2)C3)n1` [Example 23, 1″-(3-Isopropyl-[1,2,4]oxadiazol-5-yl)-5-(1-methanesulfonyl-1,2,3,6-tetrahydro-pyridin-4-yl)-dispiro[2,3-dihydrofuro[2,3-c]pyridine-2,1′-cyclobutane-3′,4″-piperidine]], a half-maximal response (EC50) required 12 nM.

`CCCc1noc(N2CCC3(CC2)CC2(Cc4cc(C5=CCN(S(C)(=O)=O)CC5)ncc4O2)C3)n1` [Example 24, 5-(1-Methanesulfonyl-1,2,3,6-tetrahydro-pyridin-4-yl)-1″-(3-n-propyl-[1,2,4]oxadiazol-5-yl)-dispiro[2,3-dihydrofuro[2,3-c]pyridine-2,1′-cyclobutane-3′,4″-piperidine]] gave an EC50 of 10 nM.

`CC(C)c1nc(N2CCC3(CC2)CC2(Cc4cc(C5=CCN(S(C)(=O)=O)CC5)ncc4O2)C3)no1` [Example 25, 1″-(5-Isopropyl-[1,2,4]oxadiazol-3-yl)-5-(1-methanesulfonyl-1,2,3,6-tetrahydro-pyridin-4-yl)-dispiro[2,3-dihydrofuro[2,3-c]pyridine-2,1′-cyclobutane-3′,4″-piperidine]] came in with an EC50 of 5 nM. In turn, `CCCc1nc(N2CCC3(CC2)CC2(Cc4cc(C5=CCN(S(C)(=O)=O)CC5)ncc4O2)C3)no1` [Example 26, 5-(1-Methanesulfonyl-1,2,3,6-tetrahydro-pyridin-4-yl)-1″-(3-n-propyl-[1,2,4]oxadiazol-3-yl)-dispiro[2,3-dihydrofuro[2,3-c]pyridine-2,1′-cyclobutane-3′,4″-piperidine]] displayed an EC50 of 8 nM. The molecule `C[C@H](OC(=O)N1CCC2(CC1)CC1(Cc3cc(C4=CCN(S(C)(=O)=O)CC4)ncc3O1)C2)C(F)(F)F` [Example 27, 1″-[(S)-2,2,2-Trifluoro-1-methyl-ethyloxycarbonyl]-5-(1-methanesulfonyl-1,2,3,6-tetrahydro-pyridin-4-yl)-dispiro[2,3-dihydrofuro[2,3-c]pyridine-2,1′-cyclobutane-3′,4″-piperidine]] showed an EC50 of 4 nM.

For the molecule `CCc1cnc(N2CCC3(CC2)CC2(Cc4cc(C5=CCN(S(C)(=O)=O)CC5)ncc4O2)C3)nc1` [Example 28, 1″-(5-Ethyl-pyrimidin-2-yl)-5-(1-methanesulfonyl-1,2,3,6-tetrahydro-pyridin-4-yl)-dispiro[2,3-dihydrofuro[2,3-c]pyridine-2,1′-cyclobutane-3′,4″-piperidine]], the EC50 was 11 nM.

`CSc1ccc(-c2cc3c(cn2)OC2(C3)CC3(CCN(C(=O)OC(C)(C)C)CC3)C2)c(C#N)c1` [Example 30, 5-(2-Cyano-4-methylsulfanyl-phenyl)-1″-tert-butoxycarbonyl-dispiro[2,3-dihydrofuro[2,3-c]pyridine-2,1′-cyclobutane-3′,4″-piperidine]] came in with an EC50 of 14 nM. In the case of `CC(C)(C)OC(=O)N1CCC2(CC1)CC1(Cc3cc(-c4ccc(S(C)(=O)=O)cc4C#N)ncc3O1)C2` [Example 31, 5-(2-Cyano-4-methylsulfonyl-phenyl)-1″-tert-butoxycarbonyl-dispiro[2,3-dihydrofuro[2,3-c]pyridine-2,1′-cyclobutane-3′,4″-piperidine]], the EC50 was found to be 5 nM.

The molecule `CS(=O)(=O)N1CC=C(c2cc3c(cn2)OC2(C3)CC3(CCN(c4ncc(C(F)(F)F)cn4)CC3)C2)CC1` [Example 32, 5-(1-Methanesulfonyl-1,2,3,6-tetrahydro-pyridin-4-yl)-1″-(5-trifluoromethyl-pyrimidin-2-yl)-dispiro[2,3-dihydrofuro[2,3-c]pyridine-2,1′-cyclobutane-3′,4″-piperidine]] displayed an EC50 of 6 nM. With `C[C@@H](OC(=O)N1CCC2(CC1)CC1(Cc3cc(C4=CCN(S(C)(=O)=O)CC4)ncc3O1)C2)C(F)(F)F` [Example 33, 5-(1-Methanesulfonyl-1,2,3,6-tetrahydro-pyridin-4-yl)-1″-[(R)-2,2,2-trifluoro-1-methyl-ethyloxycarbonyl]-dispiro[2,3-dihydrofuro[2,3-c]pyridine-2,1′-cyclobutane-3′,4″-piperidine]], the concentration giving a half-maximal response (EC50) worked out at 8 nM.
